15 compounds from US20240417359A1, “PRECURSORS OF PHENOLIC FRAGRANT COMPOUNDS” (GIVAUDAN SA, priority 2021, published 2024) can be followed below.

A short description of data set [1]: Washtest with liquid detergent and sensory evaluation of fabric by expert panel. The conditions noted are these: Table 2; dry fabric 3 days; scale 0 to 5.
Assay in data set [2]: as above
As to conditions: for odour released on dry fabric: comparison of double bond position Δ-2, Δ-3, Δ-4. How it is done: The wet and line-dried fabric (1 and 4 days) was assessed by a panel of 4-6 experts with regard to odour intensity and quality. The odour intensity was recorded on an intensity scale of 0 (odourless) to 5 (extremely strong).
The odour intensity was recorded on an intensity scale of 0 (odorless) to 5 (extremely strong).
Heavy duty liquid detergent samples were prepared and used in washtests and subsequent sensory evaluation of the washed and dried fabric as described in Example 60a and c. The odour intensity was recorded on an intensity scale of 0 (odourless) to 5 (extremely strong).

A short description of data set [3]: Biodegradability, manometric respirometry test (OECD 301F). The conditions noted are these: pass level 60% oxygen consumption of theory. From the text:
The results of the biodegradability assessment by the manometric respirometry test (OECD guideline for the testing of materials No. 301F, Paris 1992) are summarized in Table 6.
A compound can be classified biodegradable, if it reaches the pass level of 60% oxygen consumption of theory required for complete mineralization.
It is readily biodegradable, if the pass level is reached within 10 days within the 28-day period of the test. The 10-day window begins when the degree of biodegradation has reached 10%. If the pass level is obtained after 28-day period of the test, the compound can be classified as inherently biodegradable.

A short description of data set [4]: Odour description on paper blotter. The conditions noted are these: 1% solution in EtOH on paper blotter, 24 h.
The nature of data set [5]: Application in shampoo base: sensory evaluation of washed hair swatches by expert panel. As to conditions: Table 4; for odour on dry hair / odour intensity, wet: 0.2% by weight in shampoo base; for odour intensity, wet: wet hair swatch, scale 0 (odourless) to 5 (extremely strong); for odour intensity, 1 day: dried hair swatch 1 day; for odour intensity, 1 day / odour intensity, 3 days: scale 0 to 5; for odour intensity, 3 days: dried hair swatch 3 days. Also noted: species or system human. How it is done:
Odour-neutral human hair swatches were wetted with warm tap water and lathered delicately with 2 mL of the above hair shampoo samples for 30 sec by hand wearing gloves. The lathered hair swatches were left in a plastic bowl for 2 min, then rinsed under running tap water for 20 sec. After removing excess water by squeezing the hair swatches between two fingers, they were left to dry in open air. The wet and dried hair swatches (1 and 3 days) were assessed by a panel of 4-6 experts with regard to odour intensity and quality. The odour intensity was recorded on an intensity scale of 0 (odourless) to 5 (extremely strong).

Data set [6] is described as follows: Colour stability in liquid detergent base (visual inspection). Format: physicochemical. The conditions noted are these: 0.2% by weight in unperfumed liquid detergent base, compared to unperfumed base. From the text:
The above prepared samples were visually inspected in comparison to an unperfumed base sample (sample C).

Where [7] appears, read: Table 2, dry fabric 1 day, scale 0 to 5.
Where [8] appears, read: Table 2, liquid detergent washtest.
[9] abbreviates: Table 2, liquid detergent washtest, wet fabric, scale 0 (odorless) to 5 (extremely strong).
Where [10] appears, read: Table 3, dry fabric 1 day, scale 0 to 5.
[11] abbreviates: Table 3, dry fabric 4 days, scale 0 to 5.
The mark [12] stands for this setting: Table 3, heavy duty liquid detergent washtest, wet fabric, scale 0 to 5.

“Also recorded” adds a separate entry of the source.

In the case of `CC/C=C\C/C=C\COc1ccc(C=O)cc1OCC` [3-ethoxy-4-(((2Z,5Z)-octa-2,5-dien-1-yl)oxy)benzaldehyde, reference compound], the “odour intensity, 3 days” value in data set [1] was 2.3. For the same compound, the “odour intensity, 1 day” value in data set [2] (setting [7]) came out at 2.8. Besides, in data set [2] (setting [8]), the “odour on dry fabric” value is “metallic”. The “odour intensity, wet” value in data set [2] (setting [9]) stood at 0.9. In data set [2], the “odour released on dry fabric” value was “weak and unpleasant odours”.

As for `CC/C=C\CCC(CCCCCCCCC)Oc1ccc(C=O)cc1OCC` (stereo not drawn) [(Z)-3-ethoxy-4-(hexadec-3-en-7-yloxy)benzaldehyde, reference compound], the “odour intensity, 3 days” value in data set [1] was determined as 1.6. In addition, the “odour intensity, 1 day” value in data set [2] (setting [7]) stood at 1.2. Also, in data set [2] (setting [8]), the “odour on dry fabric” value was “rubbery, metallic”. The “odour intensity, wet” value in data set [2] (setting [9]) is 1.1. Besides, the “odour released on dry fabric” value in data set [2] was “weak and unpleasant odours”.

On to `CCCCCC[C@@H](C/C=C\CCCCCCCC(=O)OC)Oc1ccc(C=O)cc1OCC` [Example 1, methyl (S,Z)-12-(2-ethoxy-4-formylphenoxy)octadec-9-enoate], for which, in data set [3], the Biodegradation in % stood at 90%. Also, the Odour description entry in data set [4] was “powdery, vanillin, green, fatty”.

The compound `CCCCCC[C@@H](C/C=C\CCCCCCCC(=O)OC)Oc1ccc(CCC(C)=O)cc1` [Example 2, methyl (S,Z)-12-(4-(3-oxobutyl)phenoxy)octadec-9-enoate] registered a Biodegradation in % in data set [3] of 88%. For the same compound, in data set [4], the Odour description entry is “powdery fruity raspberry, green, fatty”.

With `CC/C=C\CC(CCCCC)Oc1ccc(C=O)cc1OCC` (stereo not drawn) [Example 17, (Z)-3-ethoxy-4-(undec-3-en-6-yloxy)benzaldehyde], in data set [3], the Biodegradation in % is recorded as 86%. The Odour description entry in data set [4] is recorded as “powdery (dry, vanilla, chocolate)”.

In the case of `CC/C=C\CC(CCCCCCCCC)Oc1ccc(C=O)cc1OCC` (stereo not drawn) [Example 28, (Z)-3-ethoxy-4-(Pentadec-3-en-6-yloxy)benzaldehyde], in data set [5], the “odour on dry hair” value is “mandarin, vanilla”. Moreover, the “odour intensity, wet” value in data set [5] worked out at 1.7; in data set [2] (Table 1, liquid detergent 0.2% by weight, 40° C. machine wash, cotton/elastan fabric, wet, scale 0 (odourless) to 5 (extremely strong)), 2.1; in data set [2] (setting [12]), 2.1. For the same compound, the “odour intensity, 1 day” value in data set [5] is recorded as 3.5; in data set [2] (Table 1, line-dried fabric 1 day, scale 0 to 5), 2.3; in data set [2] (setting [10]), 2.3. Moreover, the “odour intensity, 3 days” value in data set [5] was found to be 4.4. For the same compound, the “odour intensity, 4 days” value amounted to 2.6 in data set [2] (Table 1, line-dried fabric 4 days, scale 0 to 5) and 2.6 in data set [2] (setting [11]). For the same compound, in data set [2] (liquid detergent washtest, dry fabric), the “odour released from washed fabric” value was “mandarin, vanilla and powdery fragrance”. Besides, in data set [6], the “Colour of liquid detergent sample (visual inspection)” value was “optically identical to the unperfumed base”. For the same compound, the Odour description result in data set [4] was “powdery, creamy, vanilla, aldehydic, mandarin”.

Compound `CC/C=C/CC(CCCCCCCCC)Oc1ccc(C=O)cc1OCC` (stereo not drawn) [Example 29, (E)-3-ethoxy-4-(pentadec-3-en-6-yloxy)benzaldehyde] registered a Biodegradation in % in data set [3] of 70%. Further, the Odour description entry in data set [4] is on record as “powdery, creamy, vanilla, aldehydic, mandarin”.

Consider `CC/C=C\C/C=C\CCOc1ccc(C=O)cc1OCC` [Example 30, 3-ethoxy-4-(((3Z,6Z)-nona-3,6-dien-1-yl)oxy)benzaldehyde], for which, in data set [1], the “odour intensity, 3 days” value is recorded as 4.1. The “odour intensity, 1 day” value in data set [2] (setting [7]) and in data set [2] (setting [10]) was 3.4 in each case. The “odour on dry fabric” value in data set [2] (setting [8]) was “vanilla, green”. The “odour intensity, wet” value in data set [2] (setting [9]) and in data set [2] (setting [12]) was 2.7 throughout. Also, the “odour intensity, 4 days” value in data set [2] (setting [11]) came out at 4.1. Further, the “odour released on dry fabric” value in data set [2] was “strong and pleasant odour”. In addition, the Odour description result in data set [4] is reported as “green, leaf aldehyde, green apple, powdery, vanilla”.

For `C=CCC(CCCCCCCCC)Oc1ccc(CCC(C)=O)cc1` (stereo not drawn) [Example 36, 4-(4-(tridec-1-en-4-yloxy)phenyl)butan-2-one], in data set [5], the “odour intensity, wet” value is on record as 2.3; the “odour intensity, 1 day” value is 1.9; the “odour intensity, 3 days” value came to 1.6. In addition, in data set [4], the Odour description result is “fruity, juicy, raspberry, aldehydic, green, metallic”.

Regarding `CCCCCC(C)=CCCOc1ccc(C=O)cc1OCC` [Example 42, 3-ethoxy-4-((4-methylnon-3-en-1-yl)oxy)benzaldehyde], in data set [5], the “odour on dry hair” value is recorded as “vanilla, sweet”; the “odour intensity, wet” value was 1.0; the “odour intensity, 1 day” value was 1.4; the “odour intensity, 3 days” value was found to be 1.9. Moreover, in data set [2] (setting [10]), the “odour intensity, 1 day” value turned out to be 2.8. For the same compound, the “odour intensity, 4 days” value in data set [2] (setting [11]) was 3.3. Also, in data set [2] (setting [12]), the “odour intensity, wet” value came to 2.1. Further, in data set [4], the Odour description entry was “powdery, vanilla, sweet, sugary”.

Take `CCOc1cc(C=O)ccc1OCCC=C(C)CCc1ccccc1` [Example 47, 3-ethoxy-4-((4-methyl-6-phenylhex-3-en-1-yl)oxy)benzaldehyde]: in data set [5], the “odour intensity, wet” value came out at 1.4; the “odour intensity, 1 day” value came out at 2.7; the “odour intensity, 3 days” value was 2.1. The “odour intensity, 1 day” value in data set [2] (setting [10]) worked out at 2.7. Further, the “odour intensity, 4 days” value in data set [2] (setting [11]) is given as 3.0. The “odour intensity, wet” value in data set [2] (setting [12]) turned out to be 1.5. In data set [4], the Odour description entry is reported as “sweet, vanilla, ice cream, powdery, fruity, raspberry, sorbet”.

Take `COc1ccc(CCC(C)=CCCOc2ccc(CCC(C)=O)cc2)cc1` [Example 55, 4-(4-((6-(4-methoxyphenyl)-4-methylhex-3-en-1-yl)oxy)phenyl)butan-2-one]: in data set [5], the “odour intensity, wet” value was 1.1; the “odour intensity, 1 day” value turned out to be 2.8; the “odour intensity, 3 days” value came to 3.0. Besides, the Odour description entry in data set [4] is given as “sweet, fruity, raspberry”.

As to `CCOc1cc(C=O)ccc1OCCC=CC(C)CCC=C(C)C` (stereo not drawn) [Example 84, 4-((5,9-dimethyldeca-3,8-dien-1-yl)oxy)-3-ethoxybenzaldehyde], in data set [5], the “odour intensity, wet” value stood at 0.7; the “odour intensity, 1 day” value amounted to 2.7; the “odour intensity, 3 days” value turned out to be 3.6. Further, the Odour description result in data set [4] is recorded as “powdery, vanilla, chocolate milk, slightly fresh, fatty, watery, melon”.

In the case of `CCCCCCCCC(C)=CCCOc1ccc(C=O)cc1OCC` [Example 90, 3-ethoxy-4-((4-methyldodec-3-en-1-yl)oxy)benzaldehyde], in data set [5], the “odour intensity, wet” value worked out at 1.1; the “odour intensity, 1 day” value is 2.7; the “odour intensity, 3 days” value is 2.9. Besides, the Odour description result in data set [4] is reported as “powdery, vanilla, creamy, slightly green, sesame seed, sharp, technical”.

As to `CCOc1cc(C=O)ccc1O` [ethylvanillin, 3-ethoxy-4-hydroxybenzaldehyde], the “Colour of liquid detergent sample (visual inspection)” value in data set [6] is recorded as “strong purple coloration; also recorded: colors the base”.
